The results in this text go back to PMC7604503, “Cyclic peptides can engage a single binding pocket through highly divergent modes” (Proceedings of the National Academy of Sciences of the …, 2020).

Where a SMILES comes first, the peptide text is derived from it. Bridges are numbered along the chain shown (N, C = ends).

Test [1] deals with T1, ATAD2B (Homo sapiens, UniProt Q9ULI0).
T1 construct: purchased Eurofins DiscoverX (BROMOscan, BromoMAX)
T1 sequence (Q9ULI0 1-1458): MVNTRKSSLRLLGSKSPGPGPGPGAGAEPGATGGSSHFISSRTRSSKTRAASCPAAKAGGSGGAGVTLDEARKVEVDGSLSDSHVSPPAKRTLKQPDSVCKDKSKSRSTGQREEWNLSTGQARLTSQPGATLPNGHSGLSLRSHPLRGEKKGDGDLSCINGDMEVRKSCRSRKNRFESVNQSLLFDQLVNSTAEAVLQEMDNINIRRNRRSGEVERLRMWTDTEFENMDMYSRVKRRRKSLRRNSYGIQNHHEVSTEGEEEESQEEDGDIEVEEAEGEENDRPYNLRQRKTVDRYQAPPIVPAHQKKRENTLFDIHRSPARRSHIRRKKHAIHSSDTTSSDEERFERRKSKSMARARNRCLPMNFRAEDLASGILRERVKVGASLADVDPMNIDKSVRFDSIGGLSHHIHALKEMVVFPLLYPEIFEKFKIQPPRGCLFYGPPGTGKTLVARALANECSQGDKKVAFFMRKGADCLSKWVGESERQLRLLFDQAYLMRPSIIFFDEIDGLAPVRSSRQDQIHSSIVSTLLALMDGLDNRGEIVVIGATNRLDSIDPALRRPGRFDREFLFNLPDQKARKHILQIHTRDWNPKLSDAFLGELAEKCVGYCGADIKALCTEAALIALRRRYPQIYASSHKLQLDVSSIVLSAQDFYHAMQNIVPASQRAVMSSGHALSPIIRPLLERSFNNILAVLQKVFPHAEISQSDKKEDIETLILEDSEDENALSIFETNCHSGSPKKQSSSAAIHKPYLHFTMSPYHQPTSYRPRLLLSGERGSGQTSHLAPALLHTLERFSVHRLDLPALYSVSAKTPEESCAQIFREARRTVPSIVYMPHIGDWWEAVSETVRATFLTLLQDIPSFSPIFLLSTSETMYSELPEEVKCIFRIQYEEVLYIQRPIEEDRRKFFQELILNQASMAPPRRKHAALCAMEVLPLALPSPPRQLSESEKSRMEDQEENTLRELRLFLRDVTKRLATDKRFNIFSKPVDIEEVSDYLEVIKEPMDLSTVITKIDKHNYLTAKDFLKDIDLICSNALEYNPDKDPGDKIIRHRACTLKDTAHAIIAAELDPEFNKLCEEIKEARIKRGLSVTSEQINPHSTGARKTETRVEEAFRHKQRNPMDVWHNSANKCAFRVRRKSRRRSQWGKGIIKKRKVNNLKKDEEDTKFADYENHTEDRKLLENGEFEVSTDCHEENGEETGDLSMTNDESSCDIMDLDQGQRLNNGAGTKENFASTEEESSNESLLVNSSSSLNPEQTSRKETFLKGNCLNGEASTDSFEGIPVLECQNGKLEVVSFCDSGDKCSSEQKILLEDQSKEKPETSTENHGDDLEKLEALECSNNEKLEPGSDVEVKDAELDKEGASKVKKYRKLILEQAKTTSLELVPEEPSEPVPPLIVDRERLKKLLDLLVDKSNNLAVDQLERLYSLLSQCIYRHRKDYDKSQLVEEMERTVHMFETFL
Description: BROMOscan competition binding assay (BromoMAX, Eurofins DiscoverX). Particulars: for Percent Control ATAD2B: compound concentration 1000 nM, lower percentage control = stronger affinity.

Test [2] concerns BD1 domains (BRD2-BD1, BRD3-BD1, BRD4-BD1). Description: SPR binding, stated for the BD1 domains together. Further details: species or system human. The protocol:
We next assessed the ability of each of the three lead peptides to bind BRD3-BD1. […] To assess selectivity for other BET BDs, we used SPR to determine the binding affinity of each peptide toward the remaining BDs from BRD2, BRD3, and BRD4 (Fig. 1B). […]
Peptides were synthesised as C-terminal amides using standard fluorenylmethyloxycarbonyl (Fmoc)-strategy solid-phase chemistry using a Syro I automated synthesiser (Biotage) and NovaPEG Rink Amide resin (Novabiochem). Couplings were performed with HBTU/HOBt (1:1) and 6 equivalents of each amino acid. Double couplings were performed for arginine residues.
Following the final amino acid coupling reaction, the Fmoc group was removed and resin incubated with N-(chloroacetoxy)succinimide (0.2 M in DMF, 1 h, RT). Resin was washed with DMF (5 times) and DCM (5 times) and dried in vacuo.
Linear peptides were cleaved from the resin by incubation (3 h, RT) with a trifluoroacetic acid (TFA) cleavage cocktail (TFA/2,2’-(ethylenedioxy)diethanethiol/triisopropyl silane/H2O (92.5:2.5:2.5:2.5)) before filtration, concentration in vacuo and precipitation with ice-cold diethyl ether. Crude peptides were washed with diethyl ether (5 times), dried and resuspended in DMSO. The pH was raised to >8 using triethylamine to allow cyclisation. Following incubation (1 h, RT), peptides were re-acidified with TFA for purification.
Crude peptides were purified by reverse-phase high-performance liquid chromatography using a Chromolith Prep column (Merck) on a Prominence LC-20AP system (Shimadzu) (Solvent A: 0.1% TFA in H2O, Solvent B: 0.1% TFA in acetonitrile) to >95% purity as determined by mass spectrometry (Fig. S17). Purified peptides were reconstituted in DMSO and concentrations determined from their absorbance at 280 nm in 5% DMSO using predicted extinction coefficients.
Surface plasmon resonance (SPR)
Measurements were conducted on a T200 or S200 (GE Healthcare) and data analysed using the Biacore Insight Evaluation Software. Experiments were performed at 4 °C in single cycle kinetics mode. Biotinylated BET bromodomains were immobilised on a CAP chip (GE Healthcare) with a […]
pH 7.5 was used as the running buffer. […]

Test [3] deals with T2, BRD2-BD2 (Homo sapiens, UniProt P25440).
T2 construct: human BRD2 (BD1: 65-194; BD2: 347-455); Avi tag (biotinylated); made in house; host or cells: E. coli BL21(DE3)
T2 sequence (P25440 347-455): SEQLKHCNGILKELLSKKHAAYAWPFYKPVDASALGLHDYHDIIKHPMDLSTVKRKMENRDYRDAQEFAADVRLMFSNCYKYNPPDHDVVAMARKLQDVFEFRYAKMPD
Nature of the test: 15N-HSQC NMR titration, CSPs fitted to 1:1 binding model. Particulars: 15N-HSQC titration, simple 1:1 binding model; read-out: binding affinity for BRD2-BD2 from CSP data.
Description: (G) Overlaid section of 15N-HSQC spectra of BRD2-BD2 alone (red) or in the presence of one (yellow), two (blue), or three (green) molar equivalents of Signals that undergo the greatest CSPs in the titration are labelled in the protein alone spectrum. Binding curves were derived by tracking the combined 15N/1H chemical shift perturbations of the signals undergoing the greatest CSPs. The data were fitted to a simple 1:1 Langmuir binding isotherm using Graphpad.

The subject of test [4] is other BD families (non-BET BDs). Description: BROMOscan competition binding assay, stated for the non-BET bromodomains together. Further details: species or system human. The conditions noted are these: peptide concentration 1 μM. The text has this: Again, remarkable specificity was observed.
Test [5] deals with SMARCA4 (Homo sapiens, UniProt P51532). The conditions noted are these: compound concentration 1000 nM; lower percentage control = stronger affinity.
SMARCA4, sequence (P51532 whole entry): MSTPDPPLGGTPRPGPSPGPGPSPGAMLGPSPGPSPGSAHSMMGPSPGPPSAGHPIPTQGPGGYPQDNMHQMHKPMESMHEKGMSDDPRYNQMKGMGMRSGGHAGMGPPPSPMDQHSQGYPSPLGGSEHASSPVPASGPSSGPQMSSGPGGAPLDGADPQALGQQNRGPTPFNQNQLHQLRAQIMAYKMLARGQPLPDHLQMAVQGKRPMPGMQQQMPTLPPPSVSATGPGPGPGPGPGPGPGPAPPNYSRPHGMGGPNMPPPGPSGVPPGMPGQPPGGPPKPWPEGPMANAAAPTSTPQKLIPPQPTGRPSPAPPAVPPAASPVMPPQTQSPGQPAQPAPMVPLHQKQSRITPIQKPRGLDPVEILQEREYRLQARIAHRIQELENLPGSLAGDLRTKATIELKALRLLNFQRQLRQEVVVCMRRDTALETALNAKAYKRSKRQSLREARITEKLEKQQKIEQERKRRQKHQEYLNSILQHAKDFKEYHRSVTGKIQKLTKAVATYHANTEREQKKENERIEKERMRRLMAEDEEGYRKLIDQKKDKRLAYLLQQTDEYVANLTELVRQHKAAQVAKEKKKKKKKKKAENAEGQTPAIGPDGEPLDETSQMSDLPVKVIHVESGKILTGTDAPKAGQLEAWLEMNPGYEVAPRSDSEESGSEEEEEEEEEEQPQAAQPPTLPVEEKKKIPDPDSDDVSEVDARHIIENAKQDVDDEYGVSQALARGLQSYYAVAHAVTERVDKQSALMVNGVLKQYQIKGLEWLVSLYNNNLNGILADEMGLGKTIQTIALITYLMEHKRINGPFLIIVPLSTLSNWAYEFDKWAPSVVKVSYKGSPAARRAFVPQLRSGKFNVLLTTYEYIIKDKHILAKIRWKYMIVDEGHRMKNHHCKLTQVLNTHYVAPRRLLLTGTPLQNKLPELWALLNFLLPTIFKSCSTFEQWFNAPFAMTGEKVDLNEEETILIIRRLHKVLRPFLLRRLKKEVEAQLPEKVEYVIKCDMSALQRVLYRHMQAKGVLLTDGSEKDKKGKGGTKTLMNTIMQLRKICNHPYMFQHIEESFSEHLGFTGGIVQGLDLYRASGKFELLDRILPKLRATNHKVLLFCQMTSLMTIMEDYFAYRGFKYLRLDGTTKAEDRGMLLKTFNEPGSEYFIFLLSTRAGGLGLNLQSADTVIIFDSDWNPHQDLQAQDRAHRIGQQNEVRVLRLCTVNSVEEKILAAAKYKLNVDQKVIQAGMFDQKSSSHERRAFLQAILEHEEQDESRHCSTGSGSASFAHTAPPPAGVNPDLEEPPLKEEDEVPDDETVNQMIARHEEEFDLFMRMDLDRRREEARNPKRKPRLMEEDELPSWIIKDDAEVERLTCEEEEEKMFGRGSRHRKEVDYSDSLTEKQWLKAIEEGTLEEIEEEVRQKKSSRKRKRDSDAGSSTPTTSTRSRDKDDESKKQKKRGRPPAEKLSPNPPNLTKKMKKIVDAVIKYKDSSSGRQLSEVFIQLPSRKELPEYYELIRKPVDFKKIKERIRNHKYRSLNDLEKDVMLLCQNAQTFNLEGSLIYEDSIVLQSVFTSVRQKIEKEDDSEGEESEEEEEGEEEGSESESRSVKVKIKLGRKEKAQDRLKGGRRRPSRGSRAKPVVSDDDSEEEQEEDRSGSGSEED

In turn, `CC[C@H](C)[C@H](NC(=O)[C@H](CCCNC(=N)N)NC(=O)[C@H](CCCCNC(C)=O)NC(=O)[C@H](CCCNC(=N)N)NC(=O)[C@H](CC(C)C)NC(=O)[C@@H]1CSCC(=O)N[C@@H](Cc2c[nH]c3ccccc23)C(=O)N[C@@H](CCCCNC(C)=O)C(=O)NCC(=O)N[C@@H](Cc2ccc(O)cc2)C(=O)N[C@@H](CC(C)C)C(=O)N1)C(=O)N[C@@H](CCC(N)=O)C(=O)N[C@@H](CCCNC(=N)N)C(=O)N[C@H](C(=O)N[C@@H](Cc1ccc(O)cc1)C(=O)N[C@@H](CC(N)=O)C(N)=O)[C@@H](C)O` [4.2C] ({CH2CO}-WK(Ac)GYLCLRK(Ac)RIQRTYN-NH2; thioether N-6) gave a percent of control binding at 1 µM in test [1] of 100%.

Turning to `CC[C@H](C)[C@@H]1NC(=O)[C@H]([C@@H](C)O)NC(=O)[C@H](CCCCN)NC(=O)[C@H](Cc2c[nH]c3ccccc23)NC(=O)CSC[C@@H](C(N)=O)NC(=O)[C@H](CCC(N)=O)NC(=O)[C@H](CCCCNC(C)=O)NC(=O)[C@H]([C@@H](C)O)NC(=O)[C@H](CCCNC(=N)N)NC(=O)[C@H](Cc2c[nH]c3ccccc23)NC(=O)[C@H]([C@@H](C)O)NC(=O)[C@H](CCCCNC(C)=O)NC(=O)CNC(=O)[C@H](CCCCNC(C)=O)NC1=O` [3.1B] ({CH2CO}-WKTIK(Ac)GK(Ac)TWRTK(Ac)QC-NH2; thioether N-14), in test [2], the “affinity for BRD2-BD1 and BRD4-BD1 within a factor of the affinity for BRD3-BD1” value lay within 2 to 4 factor. Also, in test [3], the Kd was roughly 300 µM. Further, the “Percent Control ATAD2B” value in test [1] stood at 100%. Moreover, the “binding to other (non-BET) BD families (in words)” value in test [4] is “almost no binding”. The “Percent Control SMARCA4” value in test [5] stood at 77%.

On to `CC[C@H](C)[C@@H]1NC(=O)[C@H](Cc2c[nH]c3ccccc23)NC(=O)[C@H](Cc2c[nH]c3ccccc23)NC(=O)CSC[C@@H](C(N)=O)NC(=O)CNC(=O)[C@H](CCCCNC(C)=O)NC(=O)[C@H](CCCCN)NC(=O)[C@H](C(C)C)NC(=O)[C@H](CCCCNC(C)=O)NC(=O)[C@@H]2CCCN2C(=O)[C@H]([C@@H](C)CC)NC1=O` [3.1C] ({CH2CO}-WWIIPK(Ac)VKK(Ac)GC-NH2; thioether N-11), for which, in test [2], the “affinity for BRD2-BD1 and BRD4-BD1 within a factor of the affinity for BRD3-BD1” value is 2 to 4 factor. Moreover, the “Percent Control ATAD2B” value in test [1] was 100%. Besides, the “binding to other (non-BET) BD families (in words)” value in test [4] is reported as “almost no binding”. The “Percent Control SMARCA4” value in test [5] is 87%.
